Measurements from the supplement of paper PMC10307832.

Tests used:
Test in all cases: relative viability (nuclei count vs DMSO), 5 days (fraction); higher = more cells survive
[1] = compound: N=C1NC(=O)/C(=C/c2ccc(O)cc2)S1 [Mirin] + C[C@]1(O)C[C@@H](c2nc(-c3ccc4ccc(-c5ccccc5)nc4c3)c3c(N)nccn32)C1 [Linsitinib] (partner 1 µM)
Summary of the method: (§1)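 Relative viability equals treated-well nuclei counts divided by vehicle-well nuclei counts. Counts came from 4× images of lung cancer cell lines grown in 1536-well plates for 5 days after pin-tool dosing on the day after seeding. Dosing used one drug alone or a fixed anchor-drug dose plus five library-drug doses (not always all listed) in √10 steps, and values are medians of duplicate plates.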

[2] = compound: CCn1c(-c2nonc2N)nc2cnc(Oc3cccc(NC(=O)c4ccc(OCCN5CCOCC5)cc4)c3)cc21 + O=C(c1cc(Cc2n[nH]c(=O)c3ccccc23)ccc1F)N1CCN(C(=O)C2CC2)CC1 [Olaparib] (partner 8 µM)
Summary of the method: as §1

[3] = compound: CCC1=CN=CN=C1N2CCN(CC2)CC3=NC4=C(N3)C=C(C=C4)C(F)(F)F + Nc1ncn([C@H]2C[C@H](O)[C@@H](CO)O2)c(=O)n1 [Decitabine] (partner 2 µM)
Summary of the method: as §1

[4] = compound: N=C1NC(=O)/C(=C/c2ccc(O)cc2)S1 [Mirin] + C[C@@H](Oc1cc(-c2cnn(C3CCNCC3)c2)cnc1N)c1c(Cl)ccc(F)c1Cl [Crizotinib] (partner 1 µM)
Summary of the method: as §1

Cell Line | relative viability ([1]; first compound 0.25 µM) | relative viability ([1]; first compound 0.7906 µM) | relative viability ([1]; first compound 2.5 µM) | relative viability ([1]; first compound 7.906 µM) | relative viability ([1]; first compound 25 µM) | relative viability ([2]; first compound 0.04 µM) | relative viability ([2]; first compound 0.1265 µM) | relative viability ([2]; first compound 1.265 µM) | relative viability ([2]; first compound 4 µM) | relative viability ([3]; first compound 0.04 µM) | relative viability ([3]; first compound 0.1265 µM) | relative viability ([3]; first compound 0.4 µM) | relative viability ([3]; first compound 1.265 µM) | relative viability ([3]; first compound 4 µM) | relative viability ([4]; first compound 0.25 µM) | relative viability ([4]; first compound 0.7906 µM) | relative viability ([4]; first compound 2.5 µM) | relative viability ([4]; first compound 7.906 µM) | relative viability ([4]; first compound 25 µM) | relative viability ([2]; first compound 0.4 µM)
HCC-78 | 0.537 | 0.585 | 0.519 | 0.445 | 0.475 | 0.789 | 0.97 | 0.832 | 0.946 | 0.667 | 0.501 | 0.643 | 0.6 | 0.674 | 0.362 | 0.381 | 0.371 | 0.386 | 0.41 | 
HCC-366 | 0.677 | 0.468 | 0.903 | 0.644 | 0.316 | 0.334 | 0.303 | 0.0675 | 0.0475 | 0.356 | 0.288 | 0.317 | 0.307 | 0.353 | 0.464 | 0.62 | 0.44 | 0.443 | 0.413 | 0.416
HCC-827 | 0.959 | 0.972 | 0.949 | 0.935 | 1.18 | 0.686 | 0.693 | 0.501 | 0.509 | 0.504 | 0.286 | 0.34 | 0.307 | 0.357 | 0.98 | 0.961 | 0.973 | 0.885 | 1.07 | 0.698
HOP-62 | 1.09 | 0.856 | 0.937 |  | 0.866 | 0.679 | 0.379 |  | 0.351 | 0.185 | 0.199 | 0.214 | 0.249 | 0.193 | 1.05 | 0.815 | 0.828 |  | 0.937 | 0.372
IA-LM | 0.754 | 0.584 | 0.789 |  | 0.87 | 0.967 | 0.834 | 0.796 | 0.765 |  |  |  |  |  | 0.813 | 0.916 | 0.744 | 0.849 | 0.981 | 0.791
LC-2-ad | 0.816 | 1.03 | 0.937 | 0.833 | 0.732 | 0.753 | 0.677 | 0.438 | 0.334 | 0.929 | 0.816 | 0.792 | 0.774 | 0.768 | 0.493 | 0.518 | 0.466 |  | 0.254 | 0.716
LCLC-97TM1 | 0.174 | 0.166 | 0.177 | 0.143 | 0.141 | 0.518 | 0.381 | 0.387 | 0.423 | 0.24 | 0.205 | 0.225 | 0.227 | 0.215 | 0.316 | 0.317 | 0.259 | 0.218 | 0.233 | 
LCLC-103H | 1.12 | 1.11 | 1.08 | 1.22 | 1.13 | 0.908 | 0.816 | 0.717 | 0.715 | 0.708 | 0.698 | 0.712 | 0.748 | 0.728 | 1.1 | 0.978 | 1.01 | 1.17 | 1.25 | 0.712
LK-2 | 0.321 | 0.317 | 0.516 | 0.282 | 0.174 | 1.13 | 0.745 | 0.326 | 0.555 | 0.254 | 0.266 | 0.346 | 0.256 | 0.231 | 0.241 |  | 0.238 | 0.24 | 0.199 | 0.367
NCI-H522 |  |  |  |  |  | 0.661 | 0.614 | 0.514 | 0.554 | 0.666 | 0.63 | 0.821 | 0.621 | 0.797 |  |  |  |  |  | 0.665
NCI-H1299 | 0.984 | 0.966 | 0.978 | 0.879 | 1.2 | 0.975 | 0.958 | 0.712 | 0.52 |  |  |  |  |  | 0.991 | 1.05 | 0.947 | 0.997 | 1.08 | 0.867
NCI-H1395 | 1.13 |  | 1.07 | 1.05 | 0.901 | 0.384 | 0.41 | 0.374 | 0.352 | 0.705 | 0.676 | 0.692 |  | 0.743 |  |  |  |  |  | 0.401
NCI-H1563 | 1.16 | 1.32 | 1.19 | 1.18 | 1.19 |  |  |  |  |  |  |  |  |  | 0.914 | 0.836 | 0.837 | 0.96 | 0.888 | 
NCI-H1648 |  |  |  |  |  | 0.604 | 0.577 | 1.26 | 1.5 | 0.502 |  |  | 0.511 | 0.502 |  |  |  |  |  | 1.35
NCI-H1650 |  |  |  |  |  | 0.74 | 0.849 | 0.696 | 0.715 | 0.372 | 0.419 | 0.377 | 0.417 | 0.536 | 0.928 | 0.959 | 0.952 | 1.11 | 1.16 | 0.744
NCI-H1703 | 0.797 | 0.353 | 0.967 |  | 0.916 | 0.469 | 0.452 | 0.333 | 0.303 |  |  |  |  |  | 0.603 | 0.519 | 0.757 | 0.523 | 0.493 | 0.675
NCI-H1793 | 0.816 | 0.794 | 0.902 | 0.947 | 0.641 | 0.824 | 0.994 | 0.52 | 0.363 | 0.479 | 0.484 | 0.436 | 0.428 | 0.432 |  |  |  |  |  | 0.756
NCI-H2170 |  |  |  |  |  | 0.629 | 0.661 | 0.549 | 0.415 | 0.44 | 0.462 | 0.451 | 0.433 | 0.461 | 1.19 | 1.22 | 1.37 | 1.15 | 0.959 | 0.629
NCI-H2228 | 0.702 | 0.64 | 0.783 | 0.831 | 0.553 | 1.13 | 0.742 | 0.671 | 0.544 |  |  |  |  |  | 0.481 | 0.474 | 0.462 | 0.469 | 0.488 | 0.776
NCI-H2342 |  |  |  |  |  | 0.439 | 0.508 | 0.368 | 0.361 | 0.689 | 0.728 | 0.707 | 0.575 | 0.513 |  |  |  |  |  | 0.469
SW 900 |  |  |  |  |  | 0.899 | 0.924 | 0.826 | 0.694 | 0.385 | 0.424 | 0.457 |  | 0.397 |  |  |  |  |  | 1.13
